“And” between values parts separate entries of the source, which are not always exact repeats. Identical values can stand only once. Like-named read-outs stand apart in the source and are kept apart here.
What was measured:
[1] = Enrichment/extraction of i-BuOH from aqueous solution by contact with 2-heptanone; format: physicochemical; conditions: 25° C.
[2] = Enrichment/extraction of i-BuOH from aqueous solution by contact with decanol; format: physicochemical; conditions: 25° C.
[3] = Enrichment by glucose addition followed by contact with gasoline; format: physicochemical; conditions: for Increase of alcohol concentration in the gasoline phase in the presence of glucose: compared with example 3 (no glucose); for Alcohol Wt % in heavy phase / Alcohol Wt % in light phase / Alcohol Da: gasoline, 20% (w/w) glucose, 24° C.; for Alcohol Da: light/heavy phase
Method: (§1) These solutions were then mixed with gasoline. The gasoline used was commercial grade with a 95 octane rating. At equilibrium, phase separation was observed forming an upper alcohol rich phase (light phase) and a lower alcohol lean phase (heavy phase). Both phases were analyzed for alcohol and water content. The distribution coefficient of the alcohol was calculated for each experiment by dividing the alcohol concentration in the light phase by the concentration in the heavy phase. The distribution coefficient for water was calculated accordingly. The Enrichment factor was calculated by dividing the distribution coefficient of alcohol by the distribution coefficient of water. All experiments were carried out at 24° C.

[4] = Enrichment by calcium chloride addition followed by contact with gasoline; format: physicochemical; conditions: for Increase of alcohol concentration in the gasoline phase in the presence of calcium chloride: compared with example 3 (no calcium chloride); for Alcohol Wt % in heavy phase / Alcohol Wt % in light phase / Alcohol Da: gasoline, 15% (w/w) calcium chloride, 24° C.; for Alcohol Da: light/heavy phase
Method: as §1, with “observed,” for “observed”, “contents.” for “content.”, “phase.” for “phase. The distribution coefficient for water was calculated accordingly. The Enrichment factor was calculated by dividing the distribution coefficient of alcohol by the distribution coefficient of water.”

[5] = for Number of phases: aqueous propanol, 25° C.
Method: The number of liquid phases present in each mixture at 25° C. was noted.

[6] = Enrichment of C3-C6 alcohols from aqueous solutions by contact with octane; format: physicochemical; conditions: 24° C.
Method: Several aqueous solutions were prepared for each alcohol, differing in their alcohol concentrations, all of which were sub-saturated. […] The phase ratio between the aqueous solution and the solvent differed from one case to the other. Mixing was continued until equilibrium was reached. At equilibrium, phase separation could be observed forming an upper, alcohol-rich phase (light phase) and a lower, alcohol-lean phase (heavy phase). Both phases were analyzed for alcohol and water content. […] The water content of the organic phases was determined by the Karl-Fischer method. These analytical methods were also used for the analyses in the other examples.
The distribution coefficient of the alcohol was calculated for each experiment by dividing the alcohol concentration in the light phase by the alcohol concentration in the heavy phase. Similarly, the distribution coefficient for water was calculated by dividing the water concentration in the light phase by the water concentration in the heavy phase. The enrichment factor was calculated by dividing the distribution coefficient of alcohol by the distribution coefficient of water. In addition, the alcohol to water ratio (w/w) was calculated for the light phase.

[7] = Enrichment of C3-C6 alcohols from aqueous solutions by contact with gasoline; format: physicochemical; conditions: 24° C.
Method: The gasoline used was commercial grade with a 95 octane rating. […] Both phases were analyzed for alcohol and water content. The distribution coefficient of the alcohol was calculated for each experiment by dividing the alcohol concentration in the light phase by the concentration in the heavy phase. Similarly, the distribution coefficient for water was calculated by dividing the water concentration in the light phase by the water concentration in the heavy phase. The enrichment factor was calculated by dividing the distribution coefficient of alcohol by the distribution coefficient of water. All experiments were carried out at 24° C.

[8] = Phase separation of 4% butanol or isobutanol solutions by addition of calcium chloride; format: physicochemical; conditions: 4% alcohol, calcium chloride 15% (w/w), 25° C.
Method: (§2) This example illustrates the induction of phase separation of butanol or isobutanol in water solutions by calcium chloride addition. […] The light and heavy phases were analyzed for alcohol content for each experiment. All experiments were carried out at 25° C. The distribution coefficient was calculated by division of the concentration of butanol in the light phase by the concentration of butanol in the heavy phase.

[9] = Enrichment/extraction of i-BuOH from aqueous solution by contact with tri-butyl phosphate; format: physicochemical; conditions: 25° C.
[10] = Phase separation of 7% butanol or isobutanol solutions by addition of glucose; format: physicochemical; conditions: 7% alcohol, glucose 20% (w/w), 25° C.
Method: as §2, with “addition of glucose.” for “calcium chloride addition.”

[11] = Contact of sub-saturated aqueous isobutanol with 3 Angstrom molecular sieve particles; format: physicochemical; conditions: 2 g sub-saturated aqueous isobutanol with 1.5 g of 3 Angstrom molecular sieve particles
Method: This example illustrates the isobutanol enrichment from aqueous isobutanol solutions using molecular sieves to adsorb water. A sub-saturated solution of isobutanol in water was prepared. Two grams of this solution were thoroughly mixed with 1.5 g of 3 Angstrom molecular sieve particles in a vial. After mixing, the vial was left to settle.

[12] = Mutual solubility of isobutanol and water as a function of temperature; format: physicochemical; conditions: isobutanol-water
Method: First, 20 g of water were mixed with 20 g isobutanol in closed vials at room temperature. The vials were then mixed at 5, 10, 20, 40, 60 or 80° C. The vials were held at the stated temperature while being mixed until equilibrium was established. Then the samples were separated into light and heavy phases while being held at temperature. The samples from the light and the heavy phases were analyzed by HPLC and by Karl-Fischer titration.

[13] = Phase separation of aqueous t-butanol by addition of glucose; format: physicochemical
Method: This example illustrates the induction of phase separation of t-butanol (t-BuOH) in water solution by addition of glucose. An aqueous solution of t-butanol (50% v/v) was prepared at 25° C. and glucose was added to a final concentration of 20% (w/v). […] Both phases were analyzed for t-butanol concentration. The t-BuOH and glucose concentrations in the heavy phase were about 150 g/L and about 45% w/w, respectively. The light phase had about 520 g/L of t-BuOH.

[14] = aqueous i-BuOH heavy phase, equilibrium
[15] = 50% v/v aqueous t-butanol, glucose 20% (w/v), 25° C.

For `CCCCCC(C)=O` [2-Heptanone], the “2-Heptanone Wt % in heavy phase” value [1, 14] was 0.34 Wt % and 0.29 Wt % and 0.40 Wt %.

For `CCCCCCCCCCO` [Decanol, decanol], the “Decanol Wt % in heavy phase” value [2, 14] was 0.0043 Wt % and 0.0053 Wt % and 0.0020 Wt %.

For `CCCCCO` [PenOH, n-Pentanol], the “Increase of alcohol concentration in the gasoline phase in the presence of glucose” value [3] was “greater than 10 fold”, the “Alcohol Wt % in heavy phase” value [3] was 0.16 Wt % and the “Alcohol Wt % in light phase” value [3] was 3.4 Wt %. For the same compound, the “Alcohol Da” value [3] was 21, the “Increase of alcohol concentration in the gasoline phase in the presence of calcium chloride” value [4] was “greater than 10 fold” and the “Alcohol Wt % in heavy phase” value [4] was 0.14 Wt %. The “Alcohol Wt % in light phase” value [4] was 2.2 Wt % and the “Alcohol Da” value [4] was 15.

In the case of `CCCO` [PrOH, propanol], the Miscibility with water ([5]; any proportion, no additive) is reported as “fully miscible with water”, the Number of phases ([5]; CaCl2 9.5%) is reported as 1 and the Number of phases ([5]; CaCl2 15.1%) is reported as 2. It also gave a Number of phases ([5]; Glucose 40%) of 1, a Number of phases ([5]; Glucose 60%) of 2 and a Number of phases ([5]; Sucrose 40%) of 2. The Number of phases ([5]; no hydrophilic solute) was 1, the “Alcohol Wt % in heavy phase” value ([6]; equilibrium) was 1.9 Wt % and 5.7 Wt % and 0.66 Wt % and the “Alcohol Wt % in light phase” value ([6]; equilibrium) was 0.07 Wt % and 0.24 Wt % and 0.03 Wt %. For the same compound, the Enrichment factor ([6]; Da/Dw) was >80 and >100, the “Alcohol Wt % in heavy phase” value ([7]; equilibrium) was 5.1 Wt % and 0.61 Wt % and 1.9 Wt % and the “Alcohol Wt % in light phase” value ([7]; equilibrium) was 0.50 Wt % and 0.08 Wt % and 0.16 Wt %. The Enrichment factor ([7]; Da/Dw) was >200 and >240 and >160.

For `CC(C)CO` [i-BuOH, 2-methyl-1-propanol], the “Alcohol in heavy phase (% w/w)” value [8] was 2.9 % w/w, the “Alcohol in light phase (% w/w)” value [8] was 91 % w/w and the “Concentration in the light phase compared to the starting solution” value [8] was “approximately 23 fold”. The Distribution coefficient ([8]; light/heavy phase) was 31, the “i-BuOH Wt % in heavy phase” value ([1]; 2-Heptanone, equilibrium) was 1.7 Wt % and 2.0 Wt % and 0.44 Wt % and the “i-BuOH Wt % in light phase” value ([1]; 2-Heptanone, equilibrium) was 5.4 Wt % and 8.4 Wt % and 1.15 Wt %. The Enrichment factor ([1]; Da/Dw, 2-Heptanone) was 125 and 116 and 155, the “Distribution coefficient i-BuOH Da” value ([1]; light/heavy phase, 2-Heptanone) was 3.3 and 4.1 and 2.6 and the “i-BuOH Wt % in heavy phase” value ([9]; equilibrium) was 0.22 Wt % and 1.2 Wt % and 1.9 Wt %. The “i-BuOH Wt % in light phase” value ([9]; equilibrium) was 1.2 Wt % and 5.6 Wt % and 9.8 Wt %, the Enrichment factor ([9]; Da/Dw) was 76 and 74 and 82 and the “Distribution coefficient i-BuOH Da” value ([9]; light/heavy phase) was 5.4 and 4.9 and 5.2. For the same compound, the “Increase of alcohol concentration in the gasoline phase in the presence of glucose” value [3] was 2 fold, the “Alcohol Wt % in heavy phase” value [3] was 1.4 Wt % and the “Alcohol Wt % in light phase” value [3] was 1.9 Wt %. The “Alcohol Da” value [3] was 1.36, the “Alcohol in heavy phase (% w/w)” value [10] was 5.1 % w/w and the “Alcohol in light phase (% w/w)” value [10] was 87 % w/w. The “Concentration in the light phase compared to the starting solution” value [10] was “approximately 12 fold”, the Distribution coefficient ([10]; light/heavy phase) was 17 and the Enrichment factor ([2]; Da/Dw, decanol) was 116 and 119 and 99. For the same compound, the “i-BuOH Wt % in heavy phase” value ([2]; decanol, equilibrium) was 1.4 Wt % and 2.2 Wt % and 0.30 Wt %, the “Distribution coefficient i-BuOH Da” value ([2]; light/heavy phase, decanol) was 5.2 and 5.5 and 3.8 and the “Increase of alcohol concentration in the gasoline phase in the presence of calcium chloride” value [4] was 4.5 fold. The “Alcohol Wt % in heavy phase” value [4] was 0.94 Wt %, the “Alcohol Wt % in light phase” value [4] was 3.3 Wt % and the “Alcohol Da” value [4] was 3.5. For the same compound, the “Phases observed after settling” value [11] was “two liquid phases”, the “Isobutanol Wt % in light phase” value ([12]; 5° C.) was 83.9 Wt % and the “Isobutanol Wt % in light phase” value ([12]; 10° C.) was 84.0 Wt %. The “Isobutanol Wt % in light phase” value ([12]; 20° C.) was 83.4 Wt %, the “Isobutanol Wt % in light phase” value ([12]; 40° C.) was 81.5 Wt % and the “Isobutanol Wt % in light phase” value ([12]; 60° C.) was 79.1 Wt %. For the same compound, the “Isobutanol Wt % in light phase” value ([12]; 80° C.) was 76.5 Wt %.

In the case of `CC(C)(C)O` [t-BuOH, 2-methyl-2-propanol], the “Enrichment in the light phase compared to the heavy phase (factor)” value [13, 15] is reported as “about 3.5”, the “t-BuOH concentration in the heavy phase” value [13, 15] is reported as “about 150 g/L” and the “t-BuOH concentration in the light phase” value [13, 15] is reported as “about 520 g/L”. The Miscibility with water ([13]; any proportion, no additive) was “fully miscible with water”.

From patent US20140360376A1, “RECOVERY OF HIGHER ALCOHOLS FROM DILUTE AQUEOUS SOLUTIONS” (GEVO, INC., priority 2007, published 2014)
